Laboratory results: patent US11952364B2, “TRK inhibitors useful as anticancer drugs” (TYLIGAND BIOSCIENCE (SHANGHAI) LIMITED, priority 2018, dated 2024)
Where two headings read alike, the source gives them in different places.

Test system: Ba/F3 LMNA-NTRK1-G667C cells
Experiment: Proliferation of Ba/F3 LMNA-NTRK1-G667C cells (CellTiter-Glo)
Format: cell-based, mouse
Settings: Mus musculus, read-out: Ba/F3 LMNA-NTRK1-G667C, IC50
Description: Ba/F3 LMNA-NTRK1-G667C is a stable transgenic cell line constructed by KYinno Biotechnology Co., Ltd. on mouse primary B cell Ba/F3 wherein NTRK1 has a mutation of G to Cat position 667 and is highly expressed and fused with LMNA to form LMNA-NTRK1-G667C. • [Test method]: Promega's CellTiter-Glo® Luminescent Cell Viability Assay kit was used to evaluate the inhibitory activity of the compounds on the proliferation of Ba/F3 LMNA-NTRK1-G667C cells. • [Instrument]: Spectramax M3 multifunctional microplate reader from Molecular Devices. • [Test materials]: Ba/F3 LMNA-NTRK1-G667C cell line (constructed by KYinno Co., Ltd. (Beijing)), 96-well transparent flat-bottomed black-walled cell culture plate (Corning, cat #3603), RPMI-1640 media (GE, cat #SH30027.01), fetal bovine serum FBS (Thermo Fisher, cat #10099-141), CellTiter-Glo® Luminescent Cell Viability Assay kit (Promega, cat #G7572), PBS (Solarbio, cat #P1020), DMSO (Sigma, cat #D2650). • [Experimental procedure]: When resuscitating Ba/F3 LMNA-NTRK1-G667C cells, the freezing tube was quickly shaken in a 37° C. water bath to melt within 1 minute. The thawed cell suspension was mixed uniformly with RPMI1640 medium containing 10% FBS, centrifuged at 1000 rpm for 5 minutes, and the supernatant discarded. 5 mL of complete medium (RPMI1640 medium with 10% FBS) was taken to resuspend the cell pellets, charged into a cell culture flask with a bottom area of 25 cm^2, and incubated in a cell incubator at 37° C., 95% humidity and 5% CO2. Cells were allowed to passage when the number of cells reached about 10^6 cells/mL. For cell passage, the old cell suspension was directly pipetted evenly, 1/5 of the cell suspension was kept, 4 mL of new complete medium was added, after pipetting evenly, the cell flask was placed in the cell incubator for further culturing. Cell plating was performed when the number of cells reached about 10^6 cells/mL again. For cell plating, 1/5 of the cell suspension was kept for further culturing as in the cell passage method, and the remaining 4/5 of the cell suspension was placed in a 15 mL centrifuge tube, detected for cell viability by Trypan blue exclusion method to ensure that cell viability was above 90%. A cell suspension with a density of 5.56×10^4 viable cells/mL was prepared with complete medium, and 90 μL of such cell suspension was added to a 96-well cell culture plate to obtain the cell density of 5000 viable cells/mL in the cell culture plate. A control group containing no cells, no compound and only complete medium (i.e. culture medium control) and a control group containing no compound but containing cells (i.e. cell control) were set. The cell plate was placed in a cell incubator overnight. The 10 mM compound stock solution in DMSO was first serially diluted with DMSO at a dilution factor of 3.16 times, to obtain 9 concentrations, and the 10th concentration was set as DMSO control without compound. Then, PBS was used to dilute the DMSO solutions of compounds of different concentrations, at a dilution factor of 100 times, so that the DMSO concentration in the compound solution of each concentration was 1%. Finally, 10 μL of each of the above solutions was added to the corresponding cell culture plate, so that the initial compound concentration was 10 μM, with the remaining concentrations being successively diluted at a dilution factor of 3.16 times, and the DMSO content in the cell culture plate was 0.1%. The cell plate was placed in a cell incubator and cultured for 72 hours. For endpoint detection, the CellTiter-Glo reagent was melted, and the cell plate was moved to room temperature to equilibrate for 30 minutes, added with 100 μL of CellTiter-Glo for each well, and shaken on an orbital shaker for 5 minutes to fully lyse the cells. The plate was kept at room temperature for 20 minutes to stabilize the luminescence signal, and the luminescence value of each well was scanned with a multi-functional microplate reader at full wavelength. • [Test samples] […]

Cn1ncc2cc(Oc3ccc(NC(=O)c4ccc(C(F)(F)F)n(-c5ccc(F)cc5)c4=O)cc3F)c(-c3cn[nH]c3)cc21 [Example 1, N-(3-fluoro-4-(1-methyl-6-(1H-pyrazol-4-yl)-1H-indazol-5-yloxy)phenyl)-1-(4-fluorophenyl)-6-trifluoromethyl-2-oxo-1,2-dihydmpyridine-3-carboxamide monomethanesulfonate]
IC50 (BaF3, 72 h, Table 4, 72 hours): 2 nM

COc1ccc(C(=O)Nc2ccc(Oc3cc4cnn(C)c4cc3-c3cn[nH]c3)c(F)c2)c(=O)n1-c1ccc(F)cc1 [Example 12, N-(3-fluoro-4-(1-methyl-6-(1H-pyrazol-4-yl)-1H-indazol-5-yloxy)phenyl)-1-(4-fluorophenyl)-6-methoxy-2-oxo-1,2-dihydropyridine-3-carboxamide]
IC50 (BaF3, Table 4-1, separate test): < 1 nM

Cc1ccc(C(=O)Nc2ccc(Oc3cc4cnn(C)c4cc3-c3cn[nH]c3)c(F)c2)c(=O)n1-c1ccc(F)cc1 [Merestinib, reference compound]
IC50 (BaF3, 72 h, Table 4, 72 hours): 1.1 nM | IC50 (BaF3, Table 4-1, separate test): 1 nM | IC50 (BaF3, Table 4-2, separate test): 14.1 nM
